Legend:
Type in all cases: cell-based, Human
[1] = tested on: MCF-7; assay: Cancer cell growth inhibition (CellTiter-Glo), MCF-7; settings: Homo sapiens, MCF7; Breast Cancer, MCF-7, 72 h treatment
Method: (§1) Cell culture-based assays were used to evaluate the ability of compounds of the invention to inhibit cancer cell growth.
(§2) Cells were obtained from the American Type Culture Collection (ATCC). Cells were cultured at 37° C. with 5% CO2 in the appropriate growth medium (see table below), and harvested respectively during the logarithmic growth period and counted with hemocytometer. The cell viability was examined by trypan blue exclusion. Cell concentrations were adjusted to 5.56×10^4 cells/ml with respective medium.
(§3) Stock solutions of test compounds and positive drugs Doxorubicin (Zhejiang, Haizheng, China), Cisplatin (Nanjing Zhiyao, China) and Mitomycin (Zhejiang, Haizheng, China) were prepared in dimethyl sulphoxide (DMSO) or PBS at 20 mM.
(§4) In order to determine the IC50 for each compound, experiments were carried out in 96-well plates and the cell lines seeded at a density of 5,000 cells/well. […] All treatments were performed in triplicate. 10 μl of drug solution was added to each well and incubated for 72 hours. At the end of the incubation, 100 μl of the CellTiter-Glo Reagent were added to each well and the contents were mixed for 2 munites on an orbital shaker to induce cell lysis. The plate was incubated at room temperature for 10 minutes to stabilize luminiscent signal, and luminiscent was recorded. […] In order to calculate IC50 values, dose-responsive curves were fitted using nonlinear regression model with a sigmoidal dose response.

[2] = tested on: DLD-1; assay: Cancer cell growth inhibition (CellTiter-Glo), DLD-1; settings: Homo sapiens; Colorectal Cancer, DLD-1, 72 h treatment
Method: as §1, §2, §3, §4

[3] = tested on: A549; assay: Cancer cell growth inhibition (CellTiter-Glo), A549; settings: Homo sapiens; Lung Cancer, A549, 72 h treatment
Method: as §1, §2, §3, §4

[4] = tested on: Calu-6; assay: Cancer cell growth inhibition (CellTiter-Glo), Calu-6; settings: Homo sapiens; Lung Cancer, Calu-6, 72 h treatment
Method: as §1, §2, §3, §4

[5] = tested on: SK-MES-1; assay: Cancer cell growth inhibition (CellTiter-Glo), SK-MES-1; settings: Homo sapiens; Lung Cancer, SK-MES-1, 72 h treatment
Method: as §1, §2, §3, §4

[6] = tested on: U-87MG; assay: Cancer cell growth inhibition (CellTiter-Glo), U-87MG; settings: Homo sapiens, Glioblastoma, 72 h treatment
Method: as §1, §2, §3, §4

[7] = tested on: A375; assay: Cancer cell growth inhibition (CellTiter-Glo), A375; settings: Homo sapiens, A-375; Melanoma, A375, 72 h treatment
Method: as §1, §2, §3, §4

[8] = tested on: SK-MEL-5; assay: Cancer cell growth inhibition (CellTiter-Glo), SK-MEL-5; settings: Homo sapiens; Melanoma, SK-MEL-5, 72 h treatment
Method: as §1, §2, §3, §4

[9] = tested on: OVCAR3; assay: Cancer cell growth inhibition (CellTiter-Glo), OVCAR3; settings: Homo sapiens, OVCAR-3; Ovarian Cancer, OVCAR3, 72 h treatment
Method: as §1, §2, §3, §4

Row | IC50 [1] | IC50 [2] | IC50 [3] | IC50 [4] | IC50 [5] | IC50 [6] | IC50 [7] | IC50 [8] | IC50 [9] | SMILES
1 | 1.75 µM | 1.62 µM | 4.65 µM | 2.79 µM | 2.88 µM | 5.67 µM | 2.05 µM | 1.28 µM | 3.3 µM | O=C(CCCCCNC(=O)c1[nH]c(-c2ccccc2)cc1-c1ccc(O)cc1)NO [Example 1, N-(6-(hydroxyamino)-6-oxohexyl)-3-(4-hydroxyphenyl)-5-phenyl-1H-pyrrole-2-carboxamide]
2 | 10.9 µM | 4.19 µM | 8.25 µM | 4.22 µM | 4.8 µM | 11.8 µM | 4.07 µM | 1.87 µM | 3.34 µM | O=C(CCCCCNC(=O)c1[nH]c(-c2ccc(O)cc2)cc1-c1ccccc1)NO [Example 2, N-(6-(hydroxyamino)-6-oxohexyl)-5-(4-hydroxyphenyl)-3-phenyl-1H-pyrrole-2-carboxamide]
3 | 9.23 µM | 2.51 µM | 4.35 µM | 4.66 µM | 3.62 µM | 8.72 µM | 3.64 µM | 0.82 µM | 1.05 µM | O=C(CCCCCNC(=O)c1[nH]c(-c2ccc(O)cc2)cc1-c1ccoc1)NO [Example 5, 3-(3-furyl)-N-(5-(hydroxycarbamoyl)pentyl)-5-(4-hydroxy-phenyl)-1H-pyrrole-2-carboxamide]
4 | 7.07 µM | 3.5 µM | 5.39 µM | 3.46 µM | 3.7 µM | 8.98 µM | 3.2 µM | 1.02 µM | 1.74 µM | O=C(CCCCCNC(=O)c1[nH]c(-c2ccc(O)cc2)cc1-c1ccsc1)NO [Example 6, N-(5-(hydroxycarbamoyl)pentyl)-5-(4-hydroxyphenyl)-3-(3-thienyl)-1H-pyrrole-2-carboxamide]

Source: patent US20150038545A1, “HYDROXYPHENYL PYRROLE COMPOUNDS CONTAINING AN HYDROXAMIC ACID AS HDAC INHIBITORS AND MEDICINAL APPLICATIONS THEREOF” (UNIVERSIDAD DEL PAÍS VASCO, priority 2011, published 2015)
